# Tests used:
# Format in all cases: physicochemical
# [1] = Solubility in water of the dyestuff
# Experimental: (5) The wet cake obtained in above (4)was added in 1500 parts of methanol, followed by heating at 60-65° C. and stirring for 1 hr. The crystal was filtered to separate, washed with methanol and dried to obtain 42.0 parts of the compound of No.2 as a red crystal. λmax:523 nm (in water, the ammonium salt); solubility in water:100 g/l or above.
# (2) The wet cake obtained in this (1) was desalted as in Example 1(5) to obtain 35.0 parts of the compound of No.5 as a red crystal. λmax:522 nm (in water, the ammonium salt); solubility in water:100 g/l or more.
# (2) To the reaction solution of the above (1) was added 4.7 parts of the compound of Formula (5) (R1=CH3, R2=H) obtained as in Example 1 (1) and 1(2), followed by raising the temperature and dropping 10% aqueous sodium hydroxide at 60-65° C. to maintain the pH at 4-5 for 1 hr for the reaction. The solution was maintained for 1 hr at pH 6.5-7.0, and filtered to remove a little insoluble matter, to obtain the reaction solution containing the compound of No.15. The reaction solution was diluted with water to obtain 250 parts of the diluted solution, followed by heating at 60-65° C., adding 50 parts of sodium chloride and stirring for about 30 min to deposit crystal. After stirring for 1 hr, the crystal was filtered to separate, washed with 100 parts of 10% aqueous sodium chloride, and dried to obtain 8.9 parts of the sodium salt of the compound of No.15 as a red crystal. λmax:527 nm (in water); solubility in water:100 g/l or more.
# The anthrapyridone dyestuff of the present invention is suitable for an ink-jet magenta dyestuff because it has values in hue and brightness close to those of the JNC standard magenta. The dyestuff of the present invention also, when used on a special paper, can provide good light fastness and water fastness. […] Further, the dyestuffs of No.2, No.5 and No.15 obtained in Example 1 to 3 have their water-solubilities of 100 g/l or more under an alkaline condition (pH 8-9) and therefore enable to prepare stable inks for ink-jetting. […]
# [2] = Light fastness test of recorded image, carbon arc fade meter, 20 hours; conditions: carbon arc 20 hours; for Light fastness Grade: JIS L-0841 blue scale
# Excerpt: (§1) Each water-based ink composition was produced by preparing the liquids which contain the anthrapyridone compounds (dyestuff components) of No.2, No.5 and No.15 respectively and have a composition of Table 2 as shown below, and then filtering through 0.45 μm membrane filter.
# (§2) By using an ink-jet printer (Trade name: PICTY80L, made by NEC KK), ink-jet recordings were done on four types of recording sheets: a plain paper (Printer paper A4, TLB5A4S made by Canon KK), a special paper A (Color BJ Paper LC101 made by Canon KK), a special paper B (Coated paper for color image jetting, STX73A4 made by Sharp KK), and a glossy film (Special glossy film, MJA4SP6 made by Seiko-Epson KK).
# A carbon arc fade meter (by Suga Testing Machine Co.) was used to irradiate carbon arc on the recorded images for 20 hours. Grade was judged according to JIS L-0841 blue scale. A color difference (ΔE) between before and after the test was measured by the above color determination system.
# [3] = Water fastness test of recorded paper, dipped into water, stirred for 2 min, air-dried; conditions: water 2 min; for Water fastness Grade: JIS color fading grey scale
# Excerpt: as §1, §2
# A recorded paper was dipped into water in a beaker, stirred for 2 min, and air-dried. The change between before and after the test was judged by the JIS color fading grey scale. Alternatively, a color difference (ΔE) between before and after the test was measured by the above color determination system.
# [4] = Plain Paper (PP), color difference before/after
solubility in water [1] [mg/mL],Light fastness (ΔE) ([2]; Glossy Film (GF)),Light fastness Grade ([2]; Glossy Film (GF)),Light fastness Grade ([2]; Plain Paper (PP)),"Light fastness (ΔE) [2, 4]",Light fastness (ΔE) ([2]; Special Paper A (SA)),Light fastness Grade ([2]; Special Paper A (SA)),Light fastness (ΔE) ([2]; Special Paper B (SB)),Light fastness Grade ([2]; Special Paper B (SB)),Water fastness (ΔE) ([3]; Glossy Film (GF)),Water fastness Grade ([3]; Glossy Film (GF)),Water fastness Grade ([3]; Plain Paper (PP)),"Water fastness (ΔE) [3, 4]",Water fastness (ΔE) ([3]; Special Paper A (SA)),Water fastness Grade ([3]; Special Paper A (SA)),Water fastness (ΔE) ([3]; Special Paper B (SB)),Water fastness Grade ([3]; Special Paper B (SB)),Compound
≥ 100,(3.6),4,4,(3.7),(11.1),3,(7.2),3-4,(3.5),4,3-4,(8.6),(2.2),4,(5.5),3-4,Cn1c(=O)cc2c3c(c(Nc4cc(Nc5nc(NCCS(=O)(=O)O)nc(Nc6cc(C(=O)O)cc(C(=O)O)c6)n5)ccc4S(=O)(=O)O)ccc31)C(=O)c1ccccc1-2 [No.2]
≥ 100,(10.6),3-4,3-4,(8.7),(14.1),3,(12.4),3,(4.6),4,3-4,(6.3),(2.4),4,(4.5),4,Cn1c(=O)cc2c3c(c(Nc4cc(Nc5nc(NCC(=O)O)nc(Nc6cc(C(=O)O)cc(C(=O)O)c6)n5)ccc4S(=O)(=O)O)ccc31)C(=O)c1ccccc1-2 [No.5]
≥ 100,(2.8),4,3-4,(8.0),(21.3),2,(8.9),3-4,(3.8),4,1,(58.6),(1.3),4,(19.3),2,Cn1c(=O)cc2c3c(c(Nc4cc(Nc5nc(Cl)nc(Nc6cc7c(S(=O)(=O)O)cc(S(=O)(=O)O)cc7cc6S(=O)(=O)O)n5)ccc4S(=O)(=O)O)ccc31)C(=O)c1ccccc1-2 [No.15]
